≈ marks a conversion by molar mass, not a printed value. Like-named read-outs stand apart in the source and are kept apart here. Where a SMILES comes first, the peptide text is derived from it. Bridges are numbered along the chain shown (N, C = ends). Roman numbers before positions name the chains, in order. [ ]: non-standard residue; d: D form. The star is where a group is joined. Myristoyl = CCCCCCCCCCCCCC(=O)*; Lauroyl = CCCCCCCCCCCC(=O)*; Decanoyl = CCCCCCCCCC(=O)*; Nle = CCCC[C@H](N)C(=O)O; Octanoyl = CCCCCCCC(=O)*
Legend:
[1] = system: Staphylococcus aureus ATCC 33591
[2] = system: Acinetobacter baumannii ATCC BAA 1605
[3] = system: Enterococcus faecium ATCC 700221
[4] = system: Klebsiella aerogenes ATCC 13048
[5] = system: Klebsiella pneumoniae ATCC 700603
[6] = system: Pseudomonas aeruginosa ATCC 9027
[7] = system: Staphylococcus aureus ATCC 25923
[8] = system: Acinetobacter baumannii ATCC BAA 1605; format: cell-based
Summary of the method: (§1)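 Biofilms grown 24 h at 37°C from 5.0 × 10^5 CFU/mL inocula in MHB, rinsed with PBS, then exposed to compounds at 1–512 μg/mL for 24 h at 37°C. Viability read by resazurin after 1 h (570/600 nm). MBEC is the lowest concentration giving ≤10 ± 0.5% reduction relative to controls; triplicates.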

[9] = system: Candida albicans ATCC 10231; format: cell-based
[10] = system: Candida glabrata ATCC 15126; format: cell-based
[11] = system: Enterococcus faecium ATCC 700221; format: cell-based
Summary of the method: as §1

[12] = system: Klebsiella aerogenes ATCC 13048; format: cell-based
Summary of the method: as §1

[13] = system: Klebsiella pneumoniae ATCC 700603; format: cell-based
Summary of the method: as §1

[14] = system: Pseudomonas aeruginosa ATCC 9027; format: cell-based
Summary of the method: as §1

[15] = system: Staphylococcus aureus ATCC 25923; format: cell-based
Summary of the method: as §1

[16] = system: Staphylococcus aureus ATCC 33591; format: cell-based
Summary of the method: as §1

Compound | MIC Staphylococcus aureus ATCC 33591 ([1]; ATCC 33591, 24 h) | MIC Acinetobacter baumannii ATCC BAA 1605 ([2]; ATCC BAA 1605, 24 h) | MIC Enterococcus faecium ATCC 700221 ([3]; ATCC 700221, 24 h) | MIC Klebsiella aerogenes ATCC 13048 ([4]; ATCC 13048, 24 h) | MIC Klebsiella pneumoniae ATCC 700603 ([5]; ATCC 700603, 24 h) | MIC Pseudomonas aeruginosa ATCC 9027 ([6]; ATCC 9027, 24 h) | MIC Staphylococcus aureus ATCC 25923 ([7]; ATCC 25923, 24 h) | MBEC Acinetobacter baumannii ATCC BAA 1605 ([8]; ATCC BAA 1605, 24 h) | MBEC Candida albicans ATCC 10231 ([9]; ATCC 10231, 24 h) | MBEC Candida glabrata ATCC 15126 ([10]; ATCC 15126, 24 h) | MBEC Enterococcus faecium ATCC 700221 ([11]; ATCC 700221, 24 h) | MBEC Klebsiella aerogenes ATCC 13048 ([12]; ATCC 13048, 24 h) | MBEC Klebsiella pneumoniae ATCC 700603 ([13]; ATCC 700603, 24 h) | MBEC Pseudomonas aeruginosa ATCC 9027 ([14]; ATCC 9027, 24 h) | MBEC Staphylococcus aureus ATCC 25923 ([15]; ATCC 25923, 24 h) | MBEC Staphylococcus aureus ATCC 33591 ([16]; ATCC 33591, 24 h) | MIC Staphylococcus aureus ATCC 25923 ([7]; planktonic culture) | MIC Klebsiella pneumoniae ATCC 700603 ([5]; planktonic culture) | other results
CCCCCCCCCC(=O)N[C@@H](CCCNC(=N)N)C(=O)N[C@@H](CCCNC(=N)N)C(=O)N[C@@H](CSSC[C@H](NC(=O)[C@H](CCCNC(=N)N)NC(=O)[C@H](CCCNC(=N)N)NC(=O)CCCCCCCCC)C(N)=O)C(N)=O [Compound C2] (I: Decanoyl-Arg-Arg-Cys-NH2 / II: Decanoyl-Arg-Arg-Cys-NH2; disulfide I:3-II:3) | 1 µg/mL (≈ 0.854 µM) | 16 µg/mL (≈ 13.7 µM) | 2 µg/mL (≈ 1.71 µM) | 128 µg/mL (≈ 109 µM) | >256 (−/−) µg/mL | 8 µg/mL (≈ 6.83 µM) | 2 µg/mL (≈ 1.71 µM) | 256 µg/mL | 32 µg/mL | 512 µg/mL | 4 µg/mL | 256 µg/mL | 512 µg/mL | 512 µg/mL | 32 µg/mL | 8 µg/mL |  |  | 
CCCCCCCCCCCC(=O)N[C@@H](CCCNC(=N)N)C(=O)N[C@@H](CCCNC(=N)N)C(=O)N[C@@H](CSSC[C@H](NC(=O)[C@H](CCCNC(=N)N)NC(=O)[C@H](CCCNC(=N)N)NC(=O)CCCCCCCCCCC)C(N)=O)C(N)=O [Compound C3] (I: Lauroyl-Arg-Arg-Cys-NH2 / II: Lauroyl-Arg-Arg-Cys-NH2; disulfide I:3-II:3) | 4 µg/mL (≈ 3.26 µM) | 64 µg/mL (≈ 52.1 µM) | 2 µg/mL (≈ 1.63 µM) | 32 µg/mL (≈ 26.1 µM) | >256 (−/−) µg/mL | 8 µg/mL (≈ 6.52 µM) | 4 µg/mL (≈ 3.26 µM) | 512 µg/mL | 16 µg/mL | 128 µg/mL | 16 µg/mL | 256 µg/mL | 256 µg/mL | 512 µg/mL | 128 µg/mL | 32 µg/mL |  |  | 
CCCCCCCCCCCCCC(=O)N[C@@H](CCCNC(=N)N)C(=O)N[C@@H](CCCNC(=N)N)C(=O)N[C@@H](CSSC[C@H](NC(=O)[C@H](CCCNC(=N)N)NC(=O)[C@H](CCCNC(=N)N)NC(=O)CCCCCCCCCCCCC)C(N)=O)C(N)=O [Compound C4] (I: Myristoyl-Arg-Arg-Cys-NH2 / II: Myristoyl-Arg-Arg-Cys-NH2; disulfide I:3-II:3) | 32 µg/mL (≈ 24.9 µM) | 32 µg/mL (≈ 24.9 µM) | 8 µg/mL (≈ 6.23 µM) | 128 µg/mL (≈ 99.7 µM) | >256 (−/−) µg/mL | 64 µg/mL (≈ 49.9 µM) |  | 512 µg/mL | 16 µg/mL | 64 µg/mL | 64 µg/mL | 512 µg/mL | 512 µg/mL | >512 µg/mL | 512 µg/mL | 128 µg/mL | 64 µg/mL (≈ 49.9 µM) |  | 
CCCCCCCC(=O)N[C@@H](Cc1ccccc1)C(=O)N[C@@H](CCCNC(=N)N)C(=O)N[C@@H](CCCNC(=N)N)C(=O)N[C@@H](CSSC[C@H](NC(=O)[C@H](CCCNC(=N)N)NC(=O)[C@H](CCCNC(=N)N)NC(=O)[C@H](Cc1ccccc1)NC(=O)CCCCCCC)C(N)=O)C(N)=O [Compound C5] (I: Octanoyl-FRRC-NH2 / II: Octanoyl-FRRC-NH2; disulfide I:4-II:4) |  |  |  |  |  |  |  |  |  |  |  |  |  |  |  |  | 2 µg/mL (≈ 1.42 µM) | 32 µg/mL (≈ 22.7 µM) | MIC Staphylococcus aureus ATCC 33591 ([1]; planktonic culture): 2 µg/mL (≈ 1.42 µM); MIC Acinetobacter baumannii ATCC BAA 1605 ([2]; planktonic culture): 32 µg/mL (≈ 22.7 µM); MIC Enterococcus faecium ATCC 700221 ([3]; planktonic culture): 2 µg/mL (≈ 1.42 µM); MIC Klebsiella aerogenes ATCC 13048 ([4]; planktonic culture): 128 µg/mL (≈ 90.8 µM); MIC Pseudomonas aeruginosa ATCC 9027 ([6]; planktonic culture): 8 µg/mL (≈ 5.67 µM); MBEC Acinetobacter baumannii ATCC BAA 1605 ([8]; 24 h biofilm on polystyrene): 512 µg/mL; MBEC Candida albicans ATCC 10231 ([9]; 24 h biofilm on polystyrene): 128 µg/mL; MBEC Candida glabrata ATCC 15126 ([10]; 24 h biofilm on polystyrene): 256 µg/mL; MBEC Enterococcus faecium ATCC 700221 ([11]; 24 h biofilm on polystyrene): 8 µg/mL; MBEC Klebsiella aerogenes ATCC 13048 ([12]; 24 h biofilm on polystyrene): 256 µg/mL; MBEC Klebsiella pneumoniae ATCC 700603 ([13]; 24 h biofilm on polystyrene): 256 µg/mL; MBEC Pseudomonas aeruginosa ATCC 9027 ([14]; 24 h biofilm on polystyrene): 512 µg/mL; MBEC Staphylococcus aureus ATCC 25923 ([15]; 24 h biofilm on polystyrene): 64 µg/mL; MBEC Staphylococcus aureus ATCC 33591 ([16]; 24 h biofilm on polystyrene): 8 µg/mL
CCCCCCCC(=O)N[C@@H](CCCC)C(=O)N[C@@H](CCCNC(=N)N)C(=O)N[C@@H](CCCNC(=N)N)C(=O)N[C@@H](CSSC[C@H](NC(=O)[C@H](CCCNC(=N)N)NC(=O)[C@H](CCCNC(=N)N)NC(=O)[C@H](CCCC)NC(=O)CCCCCCC)C(N)=O)C(N)=O [Compound C6] (I: Octanoyl-[Nle]RRC-NH2 / II: Octanoyl-[Nle]RRC-NH2; disulfide I:4-II:4) | 2 µg/mL (≈ 1.49 µM) | 32 µg/mL (≈ 23.8 µM) | 2 µg/mL (≈ 1.49 µM) | 256 (−/−) µg/mL |  | 8 µg/mL (≈ 5.96 µM) | 2 µg/mL (≈ 1.49 µM) | 512 µg/mL | 256 µg/mL | 512 µg/mL | 8 µg/mL | 256 µg/mL | 256 µg/mL | 512 µg/mL | 32 µg/mL | 8 µg/mL |  | 64 µg/mL (≈ 47.7 µM) | 
CCCCCCC(CCCC)C(=O)N[C@@H](CCCNC(=N)N)C(=O)N[C@@H](CCCNC(=N)N)C(=O)N[C@@H](CSSC[C@H](NC(=O)[C@H](CCCNC(=N)N)NC(=O)[C@H](CCCNC(=N)N)NC(=O)C(CCCC)CCCCCC)C(N)=O)C(N)=O (stereo partly drawn) [Compound C7] | 2 µg/mL (≈ 1.63 µM) | 32 µg/mL (≈ 26.1 µM) | 2 µg/mL (≈ 1.63 µM) | 16 µg/mL (≈ 13 µM) | 32 µg/mL (≈ 26.1 µM) | 4 µg/mL (≈ 3.26 µM) | 2 µg/mL (≈ 1.63 µM) | 256 µg/mL | 64 µg/mL | 128 µg/mL | 4 µg/mL | 128 µg/mL | 256 µg/mL | 512 µg/mL | 32 µg/mL | 8 µg/mL |  |  | 

Source: publication PMC8036666, “Biological and Physico-Chemical Characteristics of Arginine-Rich Peptide Gemini Surfactants with Lysine and Cystine Spacers” (International Journal of Molecular Sciences, 2021)
